From patent publication US8609653B2, “Azaindole compounds and methods for treating HIV” (priority 2011, dated 2013)

These molecules were tested on HIV (assay: MT4 assay: antiviral HIV activity in MT-4 cells). Conditions: Human immunodeficiency virus 1, MT4, 96 h, read-out: HIV MT4 Assay IC50 (μM), HTLV-1 transformed cell line MT-4; read-out 96 hours later with cell titer glo; 10 point dose response.
Format: cell-based
Method in brief: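 Compounds tested in HTLV-1-transformed MT-4 cells for protection from HIV, with cytotoxicity run in parallel under the same conditions; CellTiter-Glo luminescence read 96 h later. IC50 from 10-point, 3–4-fold serial dilutions spanning >1000-fold, % inhibition relative to no-compound control, fitted by four-parameter logistic.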
In the case of Cc1nc2c(ccn2Cc2ccc(F)c(F)c2)c(-c2ccc3c(c2)C(C)(C)CO3)c1[C@H](OC(C)(C)C)C(=O)O [Example 123, (S)-2-(tert-butoxy)-2-(1-(3,4-difluorobenzyl)-4-(3,3-dimethyl-2,3-dihydrobenzofuran-5-yl)-6-methyl-1H-pyrrolo[2,3-b]pyridin-5-yl)acetic acid], the IC50 is reported as 2.86 µM.
With Cc1cc(F)ccc1Cn1ccc2c(-c3ccc4c(c3C)CCCO4)c([C@H](OC(C)(C)C)C(=O)O)c(C)nc21 [Example 125, (2S)-2-(tert-butoxy)-2-(1-(4-fluoro-2-methylbenzyl)-6-methyl-4-(5-methylchroman-6-yl)-1H-pyrrolo[2,3-b]pyridin-5-yl)acetic acid] the IC50 was 0.003 µM.
Molecule Cc1nc2c(c(-c3ccc4c(c3C)CCCO4)c1C(OC(C)(C)C)C(=O)O)c1ccccc1n2C (stereo not shown) [Example 127, 2-(tert-butoxy)-2-(2,9-dimethyl-4-(5-methylchroman-6-yl)-9H-pyrido[2,3-b]indol-3-yl)acetic acid] has an IC50 of 0.05 µM.
Work on Cc1nc2c(c3c(n2C2CC2)CCCC3)c(-c2ccc3c(c2C)CCCO3)c1C(OC(C)(C)C)C(=O)O (stereo not shown) [Example 128, 2-(tert-butoxy)-2-(9-cyclopropyl-2-methyl-4-(5-methylchroman-6-yl)-6,7,8,9-tetrahydro-5H-pyrido[2,3-b]indol-3-yl)acetic acid] yielded an IC50 of 0.06 µM.
